Consider three molecules from ChEMBL document CHEMBL2073983, “Characterization of the mouse bile salt export pump overexpressed in the baculovirus system” (Hepatology, 2001).

Common to all, as to type: functional, cell membranes, Membrane vesicle
Data set [1] concerns the target T1, Bile salt export pump (Bsep) (Mus musculus, UniProt Q9QY30).
T1 sequence (Q9QY30 whole entry): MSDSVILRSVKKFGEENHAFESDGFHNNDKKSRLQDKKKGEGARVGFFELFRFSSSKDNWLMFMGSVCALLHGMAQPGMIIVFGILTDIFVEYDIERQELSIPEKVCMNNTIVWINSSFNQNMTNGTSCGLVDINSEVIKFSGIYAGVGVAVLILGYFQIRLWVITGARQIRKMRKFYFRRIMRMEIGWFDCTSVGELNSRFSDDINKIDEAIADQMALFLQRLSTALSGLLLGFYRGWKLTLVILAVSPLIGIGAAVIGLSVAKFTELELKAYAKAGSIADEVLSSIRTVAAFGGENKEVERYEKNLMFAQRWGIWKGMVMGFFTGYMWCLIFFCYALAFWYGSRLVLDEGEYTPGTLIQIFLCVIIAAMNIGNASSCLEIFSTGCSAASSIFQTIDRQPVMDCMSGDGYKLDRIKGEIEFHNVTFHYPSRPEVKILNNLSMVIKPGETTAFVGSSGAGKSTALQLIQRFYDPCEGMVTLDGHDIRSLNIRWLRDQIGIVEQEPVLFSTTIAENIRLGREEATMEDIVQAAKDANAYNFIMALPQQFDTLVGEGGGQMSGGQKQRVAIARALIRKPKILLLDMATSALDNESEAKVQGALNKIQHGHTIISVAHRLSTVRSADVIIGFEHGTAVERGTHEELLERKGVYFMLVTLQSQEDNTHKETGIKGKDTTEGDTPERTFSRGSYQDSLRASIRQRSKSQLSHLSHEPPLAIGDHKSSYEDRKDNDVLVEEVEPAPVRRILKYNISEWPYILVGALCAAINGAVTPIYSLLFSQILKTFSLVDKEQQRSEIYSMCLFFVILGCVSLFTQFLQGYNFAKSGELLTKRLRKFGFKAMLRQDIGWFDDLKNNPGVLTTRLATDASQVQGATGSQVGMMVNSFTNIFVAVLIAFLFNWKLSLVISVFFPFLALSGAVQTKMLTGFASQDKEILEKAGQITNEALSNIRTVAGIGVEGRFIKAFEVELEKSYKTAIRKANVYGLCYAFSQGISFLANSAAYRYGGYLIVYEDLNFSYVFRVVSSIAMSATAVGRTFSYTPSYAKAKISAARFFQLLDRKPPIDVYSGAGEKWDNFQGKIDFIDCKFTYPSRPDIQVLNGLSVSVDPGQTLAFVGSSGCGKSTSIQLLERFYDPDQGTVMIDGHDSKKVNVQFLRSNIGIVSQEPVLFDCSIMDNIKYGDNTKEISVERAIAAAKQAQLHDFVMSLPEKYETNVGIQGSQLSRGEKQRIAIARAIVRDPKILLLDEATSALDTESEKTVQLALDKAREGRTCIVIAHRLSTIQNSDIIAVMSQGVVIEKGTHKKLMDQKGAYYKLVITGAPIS
The data set can be described thus: TP_TRANSPORTER: inhibition of Taurochenodeoxycholate-stimulated ATPase activity (Glibenclamide: 60 uM) in membrane vesicles from Bsep-expressing Sf9 cells. Details: scale not given: the % may be the effect or the level left. To be noted: probe Taurochenodeoxycholate, read-out: Activity.

For data set [2], the target named is T1, Bile salt export pump (Bsep). The data set can be described thus: TP_TRANSPORTER: inhibition of Taurochenodeoxycholate-stimulated ATPase activity (Rifamycin SV: 100 uM) in membrane vesicles from Bsep-expressing Sf9 cells. Details: scale not given: the % may be the effect or the level left. To be noted: probe Taurochenodeoxycholate, read-out: Activity.
Substrate in data set [3]: C[C@H](CCC(=O)NCCS(=O)(=O)O)[C@H]1CC[C@H]2[C@@H]3[C@H](O)C[C@@H]4C[C@H](O)CC[C@]4(C)[C@H]3CC[C@]12C
The data set can be described thus: TP_TRANSPORTER: uptake in membrane vesicles isolated from Bsep-expressing Sf9 cells.

Substrate in data set [4]: C[C@H](CCC(=O)NCC(=O)O)[C@H]1CC[C@H]2[C@@H]3[C@H](O)C[C@@H]4C[C@H](O)CC[C@]4(C)[C@H]3C[C@H](O)[C@]12C
The data set can be described thus: TP_TRANSPORTER: uptake in membrane vesicles from Bsep-expressing Sf9 cells.

As for `COc1ccc(Cl)cc1C(=O)NCCc1ccc(S(=O)(=O)NC(=O)NC2CCCCC2)cc1` [GLYBURIDE], in data set [1], the activity at 60 µM worked out at 47.2%.

With `CO[C@H]1/C=C/O[C@@]2(C)Oc3c(C)c(O)c4c(O)c(cc(O)c4c3C2=O)NC(=O)/C(C)=C\C=C\[C@H](C)[C@H](O)[C@@H](C)[C@@H](O)[C@@H](C)[C@H](OC(C)=O)[C@@H]1C` [RIFAMYCIN], the activity at 100 µM in data set [2] was 29.8%.

B1: Bile salt export pump (Mus musculus) (protein)
chain: MSDSVILRSVKKFGEENHAFESDGFHNNDKKSRLQDKKKGEGARVGFFELFRFSSSKDNWLMFMGSVCALLHGMAQPGMIIVFGILTDIFVEYDIERQELSIPEKVCMNNTIVWINSSFNQNMTNGTSCGLVDINSEVIKFSGIYAGVGVAVLILGYFQIRLWVITGARQIRKMRKFYFRRIMRMEIGWFDCTSVGELNSRFSDDINKIDEAIADQMALFLQRLSTALSGLLLGFYRGWKLTLVILAVSPLIGIGAAVIGLSVAKFTELELKAYAKAGSIADEVLSSIRTVAAFGGENKEVERYEKNLMFAQRWGIWKGMVMGFFTGYMWCLIFFCYALAFWYGSRLVLDEGEYTPGTLIQIFLCVIIAAMNIGNASSCLEIFSTGCSAASSIFQTIDRQPVMDCMSGDGYKLDRIKGEIEFHNVTFHYPSRPEVKILNNLSMVIKPGETTAFVGSSGAGKSTALQLIQRFYDPCEGMVTLDGHDIRSLNIRWLRDQIGIVEQEPVLFSTTIAENIRLGREEATMEDIVQAAKDANAYNFIMALPQQFDTLVGEGGGQMSGGQKQRVAIARALIRKPKILLLDMATSALDNESEAKVQGALNKIQHGHTIISVAHRLSTVRSADVIIGFEHGTAVERGTHEELLERKGVYFMLVTLQSQEDNTHKETGIKGKDTTEGDTPERTFSRGSYQDSLRASIRQRSKSQLSHLSHEPPLAIGDHKSSYEDRKDNDVLVEEVEPAPVRRILKYNISEWPYILVGALCAAINGAVTPIYSLLFSQILKTFSLVDKEQQRSEIYSMCLFFVILGCVSLFTQFLQGYNFAKSGELLTKRLRKFGFKAMLRQDIGWFDDLKNNPGVLTTRLATDASQVQGATGSQVGMMVNSFTNIFVAVLIAFLFNWKLSLVISVFFPFLALSGAVQTKMLTGFASQDKEILEKAGQITNEALSNIRTVAGIGVEGRFIKAFEVELEKSYKTAIRKANVYGLCYAFSQGISFLANSAAYRYGGYLIVYEDLNFSYVFRVVSSIAMSATAVGRTFSYTPSYAKAKISAARFFQLLDRKPPIDVYSGAGEKWDNFQGKIDFIDCKFTYPSRPDIQVLNGLSVSVDPGQTLAFVGSSGCGKSTSIQLLERFYDPDQGTVMIDGHDSKKVNVQFLRSNIGIVSQEPVLFDCSIMDNIKYGDNTKEISVERAIAAAKQAQLHDFVMSLPEKYETNVGIQGSQLSRGEKQRIAIARAIVRDPKILLLDEATSALDTESEKTVQLALDKAREGRTCIVIAHRLSTIQNSDIIAVMSQGVVIEKGTHKKLMDQKGAYYKLVITGAPIS
B1: the results for the Km in data set [3] and in data set [4] were 5.7 µM and 19.5 µM, respectively.
